Common to all, as to experiment: biochemical
Assay [1] concerns the target T1, horse serum butyrylcholinesterase (eqBChE) (Equus caballus, UniProt P81908).
T1 construct: AChE (from electric eel) and BChE (from horse serum); from tissue; host or cells: horse serum
The settings on record: for inhibition at 10 µM: read-out: inhibition percentage ± SEM, BChE.

Assay [2] concerns the target T2, electric eel acetylcholinesterase (eeAChE) (Electrophorus electricus, UniProt O42275).
T2 construct: AChE (from electric eel) and BChE (from horse serum); from tissue
It counts as biochemical. The settings on record: for inhibition at 10 µM: read-out: inhibition percentage ± SEM, AChE.

In the next assay the target is T3, bovine thrombin (Bos taurus, UniProt P00735).
T3 construct: purchased Sigma-Aldrich (Milan, Italy)
The following applies: for inhibition at 50 µM: read-out: inhibition percentage ± SEM, thr.

For a further assay, the target named is T4, human recombinant fXa (Homo sapiens, UniProt P00742).
T4 construct: purchased Chromogenix AB-Instrumentation Laboratories (Milan, Italy)
The settings on record: for inhibition at 50 µM: read-out: inhibition percentage ± SEM, fXa.

The mark [3] stands for this setting: horse serum BChE, Cheng–Prousoff from IC50, read-out: Ki BChE.
[4] abbreviates: electric eel AChE, Cheng–Prousoff from IC50, read-out: Ki AChE.
Setting [5] is: bovine serum thrombin, Cheng–Prousoff from IC50, pH 8, read-out: Ki thr.
The mark [6] stands for this setting: human recombinant fXa, Cheng–Prousoff from IC50, pH 8, read-out: Ki fXa.

Counter-ions that a name gives are not always drawn. Like-named read-outs stand apart in the source and are kept apart here.

T2 sequence (O42275 24-633): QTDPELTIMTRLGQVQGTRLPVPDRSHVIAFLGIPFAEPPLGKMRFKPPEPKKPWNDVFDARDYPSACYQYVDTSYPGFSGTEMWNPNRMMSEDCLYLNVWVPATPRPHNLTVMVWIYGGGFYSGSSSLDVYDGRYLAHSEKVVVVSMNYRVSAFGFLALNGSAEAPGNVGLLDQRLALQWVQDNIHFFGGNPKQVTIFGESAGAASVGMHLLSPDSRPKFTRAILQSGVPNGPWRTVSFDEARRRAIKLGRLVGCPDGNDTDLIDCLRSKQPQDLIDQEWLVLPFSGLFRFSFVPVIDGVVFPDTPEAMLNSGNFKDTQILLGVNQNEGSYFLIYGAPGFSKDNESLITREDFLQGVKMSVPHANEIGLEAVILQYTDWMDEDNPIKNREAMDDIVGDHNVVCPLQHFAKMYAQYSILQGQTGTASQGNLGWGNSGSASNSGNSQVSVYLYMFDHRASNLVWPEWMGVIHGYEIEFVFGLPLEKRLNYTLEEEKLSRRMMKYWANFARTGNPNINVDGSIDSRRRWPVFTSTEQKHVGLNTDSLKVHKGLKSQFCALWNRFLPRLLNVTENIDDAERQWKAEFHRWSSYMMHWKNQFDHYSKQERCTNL
T1 sequence (P81908 whole entry): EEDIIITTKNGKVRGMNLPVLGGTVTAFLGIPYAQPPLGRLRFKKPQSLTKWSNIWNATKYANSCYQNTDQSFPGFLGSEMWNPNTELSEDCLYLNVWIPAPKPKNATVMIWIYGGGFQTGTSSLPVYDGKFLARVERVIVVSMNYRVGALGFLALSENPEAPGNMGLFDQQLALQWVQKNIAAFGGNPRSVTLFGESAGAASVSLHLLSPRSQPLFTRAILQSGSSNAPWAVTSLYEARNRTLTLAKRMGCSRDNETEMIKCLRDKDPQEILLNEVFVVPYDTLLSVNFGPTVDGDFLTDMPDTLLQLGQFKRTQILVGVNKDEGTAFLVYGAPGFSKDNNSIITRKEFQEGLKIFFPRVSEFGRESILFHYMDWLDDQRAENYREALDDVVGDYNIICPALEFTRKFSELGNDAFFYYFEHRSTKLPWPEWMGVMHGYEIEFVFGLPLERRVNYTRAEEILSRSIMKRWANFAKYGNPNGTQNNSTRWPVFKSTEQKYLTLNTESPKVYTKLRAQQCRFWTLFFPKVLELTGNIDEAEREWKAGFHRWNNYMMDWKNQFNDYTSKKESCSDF
T4 sequence (P00742 235-488 limits assumed): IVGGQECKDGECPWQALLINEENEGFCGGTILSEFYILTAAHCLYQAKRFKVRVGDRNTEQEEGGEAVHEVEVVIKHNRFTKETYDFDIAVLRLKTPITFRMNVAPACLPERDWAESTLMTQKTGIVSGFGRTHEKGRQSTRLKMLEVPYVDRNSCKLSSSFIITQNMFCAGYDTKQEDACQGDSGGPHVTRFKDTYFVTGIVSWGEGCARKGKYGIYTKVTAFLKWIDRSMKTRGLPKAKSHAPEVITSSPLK
T4 sequence (P00742 41-179 partner limits assumed): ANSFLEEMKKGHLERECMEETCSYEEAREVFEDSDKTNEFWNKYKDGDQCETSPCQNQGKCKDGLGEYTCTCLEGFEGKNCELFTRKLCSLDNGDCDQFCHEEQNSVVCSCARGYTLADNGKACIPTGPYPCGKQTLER

For the molecule `O=C(Nc1cccc(COc2ccc(F)cc2)c1)C1CCN(c2ccncc2)CC1` [Compound 3], the Ki was 2600 nM in assay [1] (setting [3]), 165 nM in assay [2] (setting [4]), 26800 nM on bovine thrombin (setting [5]) and 774 nM at human recombinant fXa (setting [6]).

Take `N=C(N)N1CCC(C(=O)Nc2ccccc2OCc2ccc(Cl)cc2)CC1` [Compound 21, N-(2-(4-Chlorobenzyloxy)phenyl)-1-amidinopiperidine-4-carboxamide hydrochloride]: the Ki is 8200 nM in assay [1] (setting [3]), 25900 nM at bovine thrombin (setting [5]) and 60600 nM at human recombinant fXa (setting [6]). In addition, the inhibition at 10 µM in assay [2] is 38%.

With `O=C(Nc1ccc(OCc2cccc(F)c2)cc1)C1CCN(c2ccncc2)CC1` [Compound 4], the Ki in assay [1] (setting [3]) came to 425 nM; in assay [2] (setting [4]), 3880 nM; on bovine thrombin (setting [5]), 6700 nM; at human recombinant fXa (setting [6]), 25100 nM.

Take `O=C(NCc1ccc(F)cc1)c1cccc(NC(=O)C2CCN(c3ccncc3)CC2)c1` [Compound 10, N-(3-(4-fluorobenzylcarbamoyl)phenyl)-1-(pyridin-4-yl)piperidine-4-carboxamide]: the Ki came to 370 nM in assay [1] (setting [3]), 255 nM in assay [2] (setting [4]), 10600 nM on bovine thrombin (setting [5]) and 2400 nM at human recombinant fXa (setting [6]).

Regarding `N=C(N)N1CCC(C(=O)Nc2cccc(OCc3cc(-c4ccc(Cl)cc4)on3)c2)CC1` [Compound 25], the Ki was 7670 nM in assay [1] (setting [3]), 11000 nM in assay [2] (setting [4]), 630 nM at bovine thrombin (setting [5]) and 26 nM on human recombinant fXa (setting [6]).

`O=C(Nc1ccc(OCc2ccc(F)cc2)cc1)C1CCN(C2CCCC2)CC1` [Compound 17, N-(4-(4-fluorobenzyloxy)phenyl)-1-cyclopentylpiperidine-4-carboxamide]: the Ki in assay [1] (setting [3]) came to 255 nM; in assay [2] (setting [4]) it was 3520 nM. Besides, the inhibition at 50 µM came to 25% at bovine thrombin (bovine serum thrombin) and 28% on human recombinant fXa (human recombinant fXa).

In the case of `CC(C)N1CCC(C(=O)Nc2cccc(OCc3cc(-c4ccc(Cl)s4)on3)c2)CC1` [Compound 30], the Ki in assay [1] (setting [3]) came to 2130 nM; in assay [2] (setting [4]), 5100 nM; at bovine thrombin (setting [5]), 16000 nM; at human recombinant fXa (setting [6]), 90 nM.

In the case of `CC(C)N1CCC(C(=O)Nc2ccccc2OCc2cc(-c3ccc(Cl)cc3)on2)CC1` [Compound 26], the Ki in assay [1] (setting [3]) was determined as 1110 nM; in assay [2] (setting [4]), 11500 nM; at bovine thrombin (setting [5]), 13700 nM; at human recombinant fXa (setting [6]), 7 nM.

Turning to `O=C(Nc1cccc(CCc2ccc(F)cc2)c1)C1CCN(c2ccncc2)CC1` [Compound 8], the Ki was found to be 8200 nM in assay [1] (setting [3]), 495 nM in assay [2] (setting [4]), 3720 nM at bovine thrombin (setting [5]) and 37700 nM at human recombinant fXa (setting [6]).

Take `CC(C)N1CCC(C(=O)Nc2cccc(OCc3ccc(F)cc3)c2)CC1` [Compound 14, N-(3-(4-fluorobenzyloxy)phenyl)-1-isopropylpiperidine-4-carboxamide]: the Ki was determined as 104 nM in assay [1] (eqBChE 0.18 U/mL, butyrylthiocholine iodide 50-300 µM, inhibitor 0-1 µM, x-axis intercept, read-out: Ki eqBChE from replot of Lineweaver–Burk slopes versus [I]); 130 nM in assay [1] (setting [3]); 15500 nM in assay [2] (setting [4]). Besides, the inhibition at 50 µM on bovine thrombin (bovine serum thrombin) is 5%; at human recombinant fXa (human recombinant fXa), 28%.

For `O=C(Nc1ccc(F)cc1)Nc1cccc(NC(=O)C2CCN(c3ccncc3)CC2)c1` [Compound 12, 1-(3-(1-(pyridin-4-yl)piperidine-4-carboxamido)phenyl)-3-(4-fluorophenyl)urea], in assay [1] (horse serum BChE), the inhibition at 10 µM is 15%. In addition, the Ki in assay [2] (setting [4]) is 735 nM; on bovine thrombin (setting [5]) it was 26700 nM; at human recombinant fXa (setting [6]), 16500 nM.

As for `N=C(N)N1CCC(C(=O)Nc2cccc(OCc3ccc(F)cc3)c2)CC1` [Compound 13], the Ki in assay [1] (setting [3]) is 260 nM; in assay [2] (setting [4]), 10000 nM; on bovine thrombin (setting [5]) it was 20000 nM; at human recombinant fXa (setting [6]), 33000 nM.

For `N=C(N)N1CCC(C(=O)Nc2cccc(OCc3cc(-c4cccc(Cl)c4)on3)c2)CC1` [Compound 29], the Ki in assay [1] (setting [3]) is 1120 nM; in assay [2] (setting [4]), 10000 nM; at bovine thrombin (setting [5]), 15300 nM; on human recombinant fXa (setting [6]), 388 nM.

For the molecule `N=C(N)N1CCC(C(=O)Nc2ccccc2OCc2cc(-c3ccc(Cl)cc3)on2)CC1` [Compound 27], the figures for the Ki (in assay [1] (setting [3]); on bovine thrombin (setting [5]); at human recombinant fXa (setting [6])) were 10000 nM, 21200 nM and 60 nM, respectively. Also, in assay [2], the inhibition at 10 µM came to 16%.

Turning to `N=C(N)N1CCC(C(=O)Nc2cccc(OCc3cc(-c4ccc(Cl)s4)on3)c2)CC1` [Compound 31], the Ki in assay [1] (setting [3]) stood at 1620 nM; at human recombinant fXa, 15 nM. In addition, the inhibition at 10 µM in assay [2] is 31%.

`O=C(Nc1ccc(F)cc1)c1cccc(NC(=O)C2CCN(c3ccncc3)CC2)c1` [Compound 9, N-(3-(4-fluorophenylcarbamoyl)phenyl)-1-(pyridin-4-yl)piperidine-4-carboxamide]: the Ki turned out to be 8250 nM in assay [1] (setting [3]), 270 nM in assay [2] (setting [4]), 4470 nM at bovine thrombin (setting [5]) and 4040 nM on human recombinant fXa (setting [6]).

As to `O=C(Nc1cccc(OCc2cccc(F)c2)c1)C1CCN(c2ccncc2)CC1` [Compound 1], the Ki in assay [1] (setting [3]) came out at 6950 nM; in assay [2] (setting [4]), 58 nM; in assay [2] (read-out: Ki eeAChE from replot of Lineweaver–Burk slopes versus inhibitor concentration) it was 56 nM; on bovine thrombin (setting [5]), 6 nM; on human recombinant fXa (setting [6]) it was 5600 nM. Also, in assay [2] (Lineweaver–Burk, changed both Vmax and KM), the “mechanism of eeAChE inhibition” value is “noncompetitive/mixed-type inhibition”. In addition, the “experimental ΔΔG score” value in assay [2] (thr vs AChE inhibition, one unit higher than predicted by docking) was “about 1.3 kcal/mol”.

On to `O=C(Nc1cccc(OCCc2ccc(F)cc2)c1)C1CCN(c2ccncc2)CC1` [Compound 7], for which the Ki was 5630 nM in assay [1] (setting [3]), 650 nM in assay [2] (setting [4]), 4460 nM on bovine thrombin (setting [5]) and 133 nM on human recombinant fXa (setting [6]).

Take `O=C(Nc1ccccc1OCc1ccc(F)cc1)C1CCN(C2CCCC2)CC1` [Compound 19, N-(2-(4-fluorobenzyloxy)phenyl)-1-cyclopentylpiperidine-4-carboxamide]: the Ki in assay [1] (setting [3]) came to 215 nM. Further, the inhibition at 10 µM in assay [2] stood at 35%. In addition, the inhibition at 50 µM at bovine thrombin (bovine serum thrombin) worked out at 12%; on human recombinant fXa (human recombinant fXa), 28%.

Regarding `CC(C)N1CCC(C(=O)Nc2cccc(OCc3ccc(-c4ccc(Cl)cc4)cc3)c2)CC1` [Compound 22], in assay [1] (horse serum BChE), the inhibition at 10 µM came out at 35%. The Ki in assay [2] (setting [4]) stood at 3330 nM; at human recombinant fXa (setting [6]), 165 nM. Moreover, the inhibition at 50 µM on bovine thrombin (bovine serum thrombin) is 5%.

`O=C(Nc1cccc(OCc2ccc(F)cc2)c1)C1CCN(C2CCCC2)CC1` [Compound 15, N-(3-(4-fluorobenzyloxy)phenyl)-1-cyclopentylpiperidine-4-carboxamide]: the Ki was determined as 115 nM in assay [1] (setting [3]) and 30000 nM on bovine thrombin (setting [5]). For the same molecule, the inhibition at 10 µM in assay [2] worked out at 27%. The inhibition at 50 µM at human recombinant fXa (human recombinant fXa) is 40%.

`CC(C)N1CCC(C(=O)Nc2ccccc2OCc2ccc(Cl)cc2)CC1` [Compound 20, N-(2-(4-chlorobenzyloxy)phenyl)-1-isopropylpiperidine-4-carboxamide]: the Ki in assay [1] (setting [3]) was 105 nM; on human recombinant fXa (setting [6]), 484 nM. The inhibition at 10 µM in assay [2] stood at 11%. Besides, the inhibition at 50 µM at bovine thrombin (bovine serum thrombin) is 20%.

As to `O=C(Nc1ccccc1OCc1cccc(F)c1)C1CCN(c2ccncc2)CC1` [Compound 5], in assay [1] (setting [3]), the Ki is 655 nM. In assay [2], the inhibition at 10 µM was 12%. For the same molecule, the inhibition at 50 µM on bovine thrombin (bovine serum thrombin) turned out to be 10%; on human recombinant fXa (human recombinant fXa), 2%.

With “N-(2-(3-chlorobenzyloxy)phenyl)-1-isopropylpiperidine-4-carboxamide [Compound 28]”, the Ki in assay [1] (setting [3]) came to 4100 nM; in assay [2] (setting [4]), 7000 nM; at bovine thrombin (setting [5]), 23000 nM; at human recombinant fXa (setting [6]) it was 867 nM.

Regarding `CC(C)N1CCC(C(=O)Nc2cccc(OCc3cc(-c4ccc(Cl)cc4)on3)c2)CC1` [Compound 24], the figures for the Ki (in assay [1] (setting [3]); in assay [2] (setting [4]); on human recombinant fXa (setting [6])) were 3060 nM, 6300 nM and 218 nM, respectively. For the same molecule, the inhibition at 50 µM on bovine thrombin (bovine serum thrombin) was found to be 15%.

As for `CC(C)N1CCC(C(=O)Nc2ccc(OCc3ccc(F)cc3)cc2)CC1` [Compound 16, N-(4-(4-fluorobenzyloxy)phenyl)-1-isopropylpiperidine-4-carboxamide], the Ki in assay [1] (setting [3]) was determined as 2360 nM; in assay [2] (setting [4]), 6250 nM. The inhibition at 50 µM was 11% on bovine thrombin (bovine serum thrombin) and 5% at human recombinant fXa (human recombinant fXa).

Take `CC(C)N1CCC(C(=O)Nc2ccccc2OCc2ccc(F)cc2)CC1` [Compound 18, N-(2-(4-fluorobenzyloxy)phenyl)-1-isopropylpiperidine-4-carboxamide]: the Ki in assay [1] (setting [3]) was 378 nM; on bovine thrombin (setting [5]) it was 5350 nM; at human recombinant fXa (setting [6]), 10500 nM. The inhibition at 10 µM in assay [2] stood at 15%.

As to `O=C(Nc1cccc(OCc2ccc(F)cc2)c1)C1CCN(c2ccncc2)CC1` [Compound 2], the Ki in assay [1] (setting [3]) is 1210 nM; in assay [2] (setting [4]), 240 nM; on bovine thrombin (setting [5]), 210 nM; at human recombinant fXa (setting [6]), 1100 nM.

For `N=C(N)N1CCC(C(=O)Nc2cccc(OCc3ccc(-c4ccc(Cl)cc4)cc3)c2)CC1` [Compound 23], the Ki was determined as 90 nM in assay [1] (setting [3]); 5800 nM in assay [2] (setting [4]); 2040 nM at bovine thrombin (setting [5]); 31 ± 1 nM at human recombinant fXa (human fXa, read-out: Ki fXa).

On to `[H]/N=C(/N)c1ccc(NCc2nc3cc(C(=O)N(CCC(=O)O)c4ccccn4)ccc3n2C)cc1` [dabigatran, reference compound], for which, in assay [1] (horse serum BChE), the inhibition at 10 µM turned out to be 36%. At bovine thrombin, this molecule registered a Ki of 4.2 nM.

Turning to `O=C(Nc1cccc(OCCc2cccc(F)c2)c1)C1CCN(c2ccncc2)CC1` [Compound 6], the Ki was 1750 nM in assay [1] (setting [3]), 369 nM in assay [2] (setting [4]), 2140 nM at bovine thrombin (setting [5]) and 488 nM at human recombinant fXa (setting [6]).
